On the set-up of data set [1]: species or system Male Sprague-Dawley rats. As to conditions: rat, in vivo, po, 100 mg/kg. As to the method: Oral gavage (PO) and/or intracolonic (IC) dosing solutions of delivery agent compound and human parathyroid hormone residues 1-34 (PTH) in water were prepared. A solution of the compound was made either with the sodium salt of the compound or by converting the free acid to its sodium salt. Typically, a solution of the compound was prepared in water and stirred, adding one equivalent of sodium hydroxide (1.0 N) when making the sodium salt. The final dosing solutions were prepared by mixing the compound solution with a PTH stock solution (typically having a concentration of 5 mg PTH/ml) and diluting to the desired volume (usually 3.0 ml). The final compound, PTH and volume dose amounts are listed below in Table 4.
The typical dosing and sampling protocols were as follows. Male Sprague-Dawley rats weighing between 200-250g were fasted for 24 hours and administered ketamine (44 mg/kg) and chlorpromazine (1.5 mg/kg) 15 minutes prior to dosing. A dosing group of five rats was administered one of the dosing solutions. For oral gavage (PO), an 11cm Rusch 8 French catheter was adapted to a 1 ml syringe with a pipette tip. The syringe was filled with dosing solution by drawing the solution through the catheter, which was then wiped dry. The catheter was placed down the esophagus leaving 1 cm of tubing past the rat's incisors. Solution was administered by pressing the syringe plunger. For intracolonic (IC) dosing, a 7.5 cm Rusch catheter tube (French 8 or 6) was adapted to a syringe with an Eppendorf pipette tip. The syringe was filled with the dosing solution by drawing the solution through the catheter tube. The catheter tube was wiped dry. K-Y jelly was applied to the tip, avoiding contact with the eye of the tube, and the tube was inserted into the colon through the anus until the tube was no longer visible. The solution was injected by pressing the syringe plunger, and the tube was removed.
Blood samples were collected serially from the tail artery, typically 0, 15, 30, 45, 60 and 90 minutes after oral administration and 0, 10, 20, 30, 60 and 90 minutes after IC administration. Serum PTH concentrations were quantified by a PTH radioimmunoassay kit (Kit # RIK 6101 from Peninsula Laboratories, Inc., San Carlos, CA). Previous studies indicated baseline values of about zero. Results from the five rats in each group were averaged for each time point. The maximum is reported below in Table 4.

Data set [2] can be described thus: Intracolonic delivery of heparin with delivery agent compound; heparin activity by activated partial thromboplastin time (APTT). Type of data set: in vivo, Male Sprague-Dawley rats. As to conditions: rats, intracolonic (IC); compound 50 mg/kg, heparin 25 mg/kg, volume 1 ml/kg; maximum of time-point means of five rats; baseline about 20 sec. How it is done:
Oral gavage (PO) and/or intracolonic (IC) dosing solutions containing a delivery agent compound and heparin sodium USP in 25% aqueous propylene glycol were prepared. Either the sodium salt of the compound was used or the free acid was converted to the sodium salt with one equivalent of sodium hydroxide. Typically, delivery agent compound and heparin (about 166-182 IU/mg) were mixed by vortex as dry powders. This dry mixture was dissolved in 25% v/v aqueous propylene glycol, vortexed and placed in a sonicator (about 37 °C). The pH was adjusted to about 7 (6.5 to 8.5) with aqueous sodium hydroxide (2N). The dosing solution was sonicated to produce a clear solution. The final volume was adjusted to about 3.0 ml. The final delivery agent compound dose, heparin dose and volume dose amounts are listed below in Table 2.
The typical dosing and sampling protocols were as follows. […]
Citrated blood samples were collected by cardiac puncture following the administration of ketamine (88 mg/kg), typically at 0.25, 0.5, 1.0 and 1.5 hours after administration. Heparin activity was determined by utilizing the activated partial thromboplastin time (APTT) according to the method of Henry, J.B., Clinical Diagnosis and Management by Laboratory Methods, Philadelphia, PA, W.B. Saunders (1979). […]

Details of data set [3]: species or system Male Sprague-Dawley rats. Conditions: rat, in vivo, po, 150 mg/kg. How it is done:
Oral dosing (PO) compositions of delivery agent compound and salmon calcitonin (sCT) in water were prepared. Typically, 450 mg of compound was added to 2.0 ml of water. Either the sodium salt of the compound was used or the free acid was converted to the sodium salt by stirring the resultant solution and adding one equivalent of sodium hydroxide (1.0 N) and diluting with water. The solution was vortexed, then heated (about 37°C) and sonicated. The pH was adjusted to about 7 (6.5 to 8.5) with sodium hydroxide or hydrochloric acid. 90 µg sCT from a stock solution was added to the solution. Water was then added to bring the total volume to about 3.0 ml (varies depending on solubility of the delivery agent compound) and vortexed. The final delivery agent compound dose, sCT dose and volume dose amounts are listed below in Table 1.
The typical dosing and sampling protocols were as follows. Male Sprague-Dawley rats weighing between 200-250g were fasted for 24 hours and administered ketamine (44 mg/kg) and chlorpromazine (1.5 mg/kg) 15 minutes prior to dosing. A dosing group of five rats was administered one of the dosing solutions. For oral dosing, an 11 cm Rusch 8 French catheter was adapted to a 1 ml syringe with a pipette tip. The syringe was filled with dosing solution by drawing the solution through the catheter, which was then wiped dry. The catheter was placed down the esophagus leaving 1 cm of tubing past the incisors. Solution was administered by pressing the syringe plunger.
Blood samples were collected serially from the tail artery, typically at 0, 10, 20, 30, 60 and 90 minutes after administration. Serum sCT was determined by testing with an EIA kit (Kit # EIAS-6003 from Peninsula Laboratories, Inc., San Carlos, CA). Numbers were adjusted according to baseline values obtained at 0 minutes. The limit of the assay is 80 pg/ml. The results from the five rats in each dosing group were averaged for each time point. The maximum is reported below in Table 1.

On to `O=C(O)CCCCCCCc1nnc(-c2ccccc2O)o1` [Compound 4], for which, in data set [1], the AUC is 6852.12 and the “Mean Peak Serum [PTH] (pg/ml) ± SD” value is 330.74 ± 410.57 pg/mL.
As for `O=C(O)CCCCCCc1nnc(-c2ccccc2O)o1` [Compound 2], the “Mean Peak APTT (sec) ± SD” value in data set [2] amounted to 52.8 ± 31.9 s. The “Mean Peak Serum [PTH] (pg/ml) ± SD” value in data set [1] is 498.55 ± 237.83 pg/mL.
For the compound `O=C(O)CCCCCCc1nnc(-c2cc(Cl)ccc2O)o1` [Compound 5], the “Mean Peak Serum Set (pg/ml ± SD)(SE)” value in data set [3] was 393 ± 431 (193) pg/ml. Also, in data set [1], the AUC was 509.20 and the “Mean Peak Serum [PTH] (pg/ml) ± SD” value worked out at 22.91 pg/mL.
Regarding `O=C(O)CCCCCCc1nnc(-c2cc(Cl)cc(Cl)c2O)o1` [Compound 6], in data set [3], the “Mean Peak Serum Set (pg/ml ± SD)(SE)” value was 306 ± 339 (152) pg/ml. In data set [1], the AUC is 716.96 and the “Mean Peak Serum [PTH] (pg/ml) ± SD” value turned out to be 14.44 pg/mL.
Regarding `O=C(O)CCCCc1nnc(-c2ccccc2O)o1` [Compound 3], in data set [1], the AUC amounted to 2717.51 and the “Mean Peak Serum [PTH] (pg/ml) ± SD” value was 57.88 pg/mL.
As to `O=C(O)CCCCCCc1nnc(-c2ccccc2)o1` [Compound 10], in data set [3], the “Mean Peak Serum Set (pg/ml ± SD)(SE)” value came to 37 ± 55 pg/mL.
As to `Cc1ccc(-c2nnc(CCCCCCC(=O)O)o2)c(O)c1` [Compound 7], in data set [1], the AUC worked out at 4790.10 and the “Mean Peak Serum [PTH] (pg/ml) ± SD” value was determined as 138.9 ± 118.46 pg/mL.

Values taken from EP1156787B1, “OXADIAZOLE COMPOUNDS AND COMPOSITIONS FOR DELIVERING ACTIVE AGENTS” (priority 1999, dated 2000).
